The results in this text go back to a melting point compilation (Tetko et al.; mined from patent text by program, amines drawn as free bases though some values may be those of a salt).

Usually melting point stands for the temperature, or range, at which the solid turns liquid.

On to `CC(=O)Nc1cc(O)cc(C(C)CCCc2ccccc2)c1` (centres undefined), for which the melting point fell in the range of 128 to 130 °C.

Turning to `O=C(O)c1ccc(F)c2c1C=CCO2`, the melting point was in the range of 224 to 226 °C.

For the compound `N#CCc1nc(C(F)(F)F)ccc1C(=O)O`, the melting point lay in the range of 152 to 153 °C.

In the case of `Cc1cc(O)ccc1OCc1ccccc1`, the melting point is 70 to 71 °C.

For the compound `CCOC(=O)c1c(CCl)nc2ccc(Cl)cc2c1-c1ccc(Cl)cc1`, the melting point fell in the range of 140 to 141 °C.

As for `Cc1coc(-c2ccc(-c3ccccc3S(=O)(=O)Nc3onc(C)c3C)cc2)n1`, the melting point fell in the range of 85 to 95 °C.

`CCOc1cc(-c2cc(C(F)(F)F)nc(Cl)n2)ccc1C(F)(F)F` gave a melting point of 89 °C.

For the compound `O=C(O)Cc1ccc(CCNS(=O)(=O)c2ccc(Cl)cc2)s1`, the melting point worked out at 138 °C.

`Cn1nnnc1CC(O)(c1ccccc1)c1ccccc1` gave a melting point of 175 to 176 °C.

The compound `O=C(/C=C/c1c[nH]c2ccccc12)c1ccccc1` registered a melting point of 167 to 170 °C.

In turn, `Cc1nnc2n1-c1ccc(Br)cc1C(c1ccccn1)=NC2` displayed a melting point of 248 to 250 °C.

For the compound `CCCc1c(OCc2ccc(C(=O)O)cc2OCC)ccc(C(C)=O)c1O`, the melting point fell in the range of 152 to 153 °C.

The compound `Cc1ccc(N)cc1NC(=O)c1ccc(O)cc1` yielded a melting point of 277 to 278 °C.

As for `Nc1cc(Oc2ccc3c(C(=O)O)cccc3c2)ncn1`, the melting point lay within 288 to 290 °C.

On to `CN(C)CC#CC1=Cc2ccccc2Sc2ccc(Cl)cc21`, for which the melting point lay within 118 to 120 °C.

Consider `COCC(=O)N(c1c(C)cccc1C)C1CCOC1=O` (centres undefined), for which the melting point lay within 118 to 120 °C.

The compound `Cc1ccc2cccc(OCc3c(Cl)ccc(S(=O)(=O)N4CCCC4C(=O)NCCCN)c3Cl)c2n1` (centres undefined) showed a melting point of 130 to 132 °C.

Compound `Cn1nc(-c2cc(S(=O)(=O)Cl)c(Cl)cc2F)c(Cl)c1C(F)(F)F` displayed a melting point of 116 to 117 °C.

For `CCOC(=O)N1CCC(Oc2ccccc2)(c2ccccc2)CC1`, the melting point is 117 to 118 °C.

Regarding `CCc1c(Sc2cc(C)cc(C)c2)n(CC2=CCCC2CO)c(=O)[nH]c1=O` (centres undefined), the melting point is 59 to 60 °C.

The compound `COc1ccc(NC(C)=O)cc1OC(F)F` returned a melting point of 129 to 130 °C.

As for `CCC(O)(CC)c1ccc(-c2cccc(OCc3ccc(CO)c(CO)c3)c2C)c(C)c1`, the melting point lay in the range of 81 to 82 °C.

In turn, `CSCCCn1cc(C2=C(c3cn(C)c4ccccc34)C(=O)NC2=O)c2ccccc21` gave a melting point of 222 to 224 °C.

As to `Cc1c(SCCCSCc2ccc(Cl)s2)ccnc1CNc1cnc2ccccc2c1`, the melting point is 127 to 131 °C.

As for `Cc1nnc2nc(-c3cccc(C(F)(F)F)c3)ccn12`, the melting point was 232 to 234 °C.

On to `O=C(O)c1ccc(OC2=C3N=C4CCCCC4=C3C(Cc3ccc(Cl)cc3)C=C2)o1` (centres undefined), for which the melting point is 162 to 164 °C.

`O=C1CCc2c(-c3ccncc3)sc(-c3cccnc3)c21` returned a melting point of 214 to 216 °C.

`Cc1c(C(=O)N[C@H](C)[C@](O)(Cn2cncn2)c2ccc(F)cc2F)cnn1-c1c(Cl)cccc1Cl` returned a melting point of 226 to 227 °C.

Take `Cc1ccc(S(=O)(=O)OCCc2c(F)ccc(F)c2F)cc1`: the melting point is 73 to 74 °C.

For `O=C(O)Cc1cc(C(=O)c2ccc(Cl)cc2)sc1-c1ccccc1`, the melting point lay in the range of 142 to 143 °C.

For `Cc1ncccc1OCCO`, the melting point is 75 to 80 °C.

The compound `C[N+]([O-])=C(Cn1cncn1)c1ccc(Cl)cc1` gave a melting point of 119 to 121 °C.

For the compound `O=CNCc1ccc2[nH]cc(CCCN3C(=O)c4ccccc4C3=O)c2c1`, the melting point is 150 to 152 °C.

`O=C(Nc1cc2c3c(c1)CCCC3CCC2)c1ccc(C(=O)O)nc1` yielded a melting point of 239 to 240 °C.

Compound `O=C(O)/C=C/c1cc([N+](=O)[O-])ccc1O` showed a melting point of 265 to 267 °C.

Consider `CC(=O)c1ccc2oc3ncccc3c(=O)c2c1`, for which the melting point lay within 195 to 196 °C.

In the case of `O=C(c1cc(=O)c2cc(O)ccc2[nH]1)N1CCC(Oc2ccccc2)CC1`, the melting point came out at 270 °C.

`CC(C)(C)C(F)(F)c1ccc(C[C@H](N)[C@H](O)c2cccc(Cl)c2)cc1` (racemic) yielded a melting point of 105 to 107 °C.

In turn, `Cc1cc(-c2c(F)cc3c(=O)c(C(=O)O)cn(C4CC4)c3c2F)cc(C)n1` displayed a melting point of 246 to 248 °C.

In the case of `Cc1nn(C)c2nc(N)c(-c3cccc(Cl)c3)nc12`, the melting point fell in the range of 224 to 226 °C.

In turn, `COC(=O)Cc1c(Cl)nc(-c2ccccc2)n1Cc1ccc(C)cc1` registered a melting point of 92 to 95 °C.

In turn, `CCN1CS(=C2SC(=S)N(Cc3ccccc3)C2=O)c2ccccc21` (centres undefined) yielded a melting point of 209 to 211 °C.

`CS(=O)(=O)c1ccc(-c2sc(-c3ccccc3Cl)nc2-c2ccc(Br)cc2)cc1` showed a melting point of 168 to 184 °C.

`CSCc1ccc(NC(=O)/C=C/c2cnn(C)c2-c2ccc(SC)cc2)cc1` showed a melting point of 145 to 146 °C.

For the compound `COC(=O)c1cc(C)c(OCCNC(=O)C2Cc3ccccc3N2S(=O)(=O)c2ccc(-c3cccc(C(F)(F)F)c3)cc2)c(C)c1` (centres undefined), the melting point was in the range of 81 to 83 °C.

As to `COc1cc(-c2cccs2)ccc1C(=O)/C=C/c1ccc(C(=O)O)cc1`, the melting point lay within 193 to 195 °C.

With `c1ccc2c(c1)c1ccccc1c1cc(-c3ccc4c5ccccc5c5ccccc5c4c3)ccc21`, the melting point was determined as 356 °C.

Regarding `CCCCc1ccc(CCc2ccc(-c3ccc(F)cc3F)cc2)cc1`, the melting point was determined as 40 °C.

`COc1ccc2[nH]c(SCc3nccc(N4CCCC4)c3Cl)nc2c1` registered a melting point of 131 to 133 °C.

The compound `CCOC(=O)c1c(C)n(Cc2ccc3ccccc3n2)c2ccc(OCc3ccc4ccccc4n3)cc12` gave a melting point of 162 to 163 °C.

For the compound `Cc1nc(-c2ccc(C#CC3(O)CN4CCC3CC4)cc2)no1` (single isomer, unassigned; (-)), the melting point fell in the range of 211 to 212 °C.

For `ICCCCCOc1ccc(C2=C(c3ccccc3)CCCc3cc(OC4CCCCO4)ccc32)cc1` (centres undefined), the melting point lay in the range of 109 to 111 °C.

In turn, `N#Cc1ccc(C(=O)N2CCc3[nH]c4c(cnc5cc(Cl)ccc54)c3C2)cc1` displayed a melting point of over 300 °C.

Regarding `CC(=O)N[C@H](COCc1cc(C)cc(C)c1)Cc1ccccc1`, the melting point fell in the range of 76 to 78 °C.

Compound `COc1nc(NCS(=O)(=O)c2ccc(C)cc2)nc(N(C)C)n1` returned a melting point of 188 to 190 °C.

`Cc1nn(-c2ccccn2)c2ncc(C(=O)NC3CCCCC3)c(O)c12` had a melting point of over 300 °C.

As for `O=C(On1nnc2ccc(Cl)cc21)c1ccccc1`, the melting point stood at 132 °C.

`CN(C(=O)CCCCO/N=C(\c1ccccc1)c1ccc2c(c1)CN1CC(=O)NC1=N2)C1CCCCC1` displayed a melting point of 190 °C.

Compound `Cc1[nH]c(-c2ccccc2)nc1CO` returned a melting point of 197 to 199 °C.

As to `O=C(O)COc1ccc(-c2nc3ncccc3[nH]2)c(O)c1`, the melting point came to 235 °C.

In turn, `O=C(O)Cc1c(C(=O)c2ccc(O)cc2)[nH]c2cc(Cl)ccc12` yielded a melting point of 231 to 234 °C.

The compound `CC(C)(C)C(=O)C(CS(=O)(=O)c1ccc(Cl)cc1)n1cncn1` (centres undefined) yielded a melting point of 134 °C.

`FC(F)(F)c1ccc2[nH]c(-c3csc(Cc4c(Cl)cccc4Cl)n3)nc2c1` showed a melting point of 187 to 189 °C.

On to `COc1nc(NC(=O)NS(=O)(=O)c2ccsc2C(=O)C2CC2)nc(OC)n1`, for which the melting point is 146 to 148 °C.

With `CC(=O)Nc1cccc(-c2nc3ncccc3o2)c1`, the melting point came out at 202 °C.

Regarding `CC#Cc1ccc(-c2ccc(-c3ccc(CCCCC)c(F)c3F)cc2)cc1`, the melting point is 127 °C.

The compound `CC1(C)OC(C=Cc2ccsc2)=CC1=O` yielded a melting point of 79 to 80 °C.

With `CSC(Oc1cc2cc(Br)cnc2cc1C)C(=O)NC(C)(C)C` (centres undefined), the melting point lay in the range of 132 to 134 °C.

As for `CCOC(=O)C1C(=O)C=C(c2ccc(OCC(=O)O)c(Cl)c2Cl)CC1c1ccccc1` (centres undefined), the melting point was 91 °C.

On to `O=C1CC(c2ccccc2)CC(=O)C1C(=O)c1ccc(Cl)cc1[N+](=O)[O-]` (centres undefined), for which the melting point was 144 to 145 °C.

As to `CCOC(=O)COc1ccc(NC(C)=O)cc1NC(=O)c1ccc(OCCCCc2ccccc2)cc1`, the melting point was in the range of 130 to 132 °C.

In the case of `Cc1cccc(C2(c3cccc(C)c3)CCC(=O)[C@H]3CN(C(=O)Cc4ccccc4)C[C@H]32)c1` (racemic), the melting point was 207 °C.

Take `CN1CC=C(c2c[nH]c3cc(Cl)c(Cl)cc23)CC1`: the melting point lay in the range of 255 to 257 °C.

`NC1(Cc2ccc(C(=O)Nc3ccncc3)cc2)C=CC=CC1` (centres undefined): the melting point lay in the range of 76.8 to 77.6 °C.

In turn, `CC(NC(=O)/C=C\C(=O)O)C(O)c1ccccc1` (centres undefined) displayed a melting point of 154 to 156 °C.

The compound `Cc1ccc(NC(=N)c2ccncc2)cc1` returned a melting point of 120 to 123 °C.

On to `COC(=O)c1cc(NS(C)(=O)=O)ccc1OC`, for which the melting point lay in the range of 82 to 83 °C.

In turn, `CN1CC(C)(C)Oc2c(C(=O)NC3CN4CCC3CC4)cccc21` (centres undefined) yielded a melting point of 114 to 116 °C.

Regarding `CCCc1c(OCC2(O)CCCCC2Sc2ccc(C(=O)CCC(=O)O)cc2)ccc(C(C)=O)c1O` (centres undefined), the melting point lay within 55 to 57 °C.

Compound `C=C(CN(C)C)C(O)c1ncc2c(c1O)COC2c1cccc(Cl)c1Cl` (centres undefined) showed a melting point of 180 to 184 °C.

In the case of `CCOC(=O)c1cc2cc(N)ccc2nn1`, the melting point lay in the range of 204 to 206 °C.

As to `CC1OC(n2cnc3c(S(N)(=O)=O)nc(N)nc32)C(O)C1O` (centres undefined), the melting point was over 90 °C.

As for `CN(Cc1cc2c3c(c1)c(=O)c(C(=O)NCc1ccc(F)cc1)cn3CC(=O)N2C)C[C@@H](O)c1cc2ccccc2o1`, the melting point was 94 to 96 °C.

Compound `CC(=O)NC1CCCN(c2c(F)cc3c(=O)c(C(=O)O)cn(C4CC4)c3c2F)C1` (centres undefined) displayed a melting point of 280 to 282 °C.

For `ClCCN1c2cc3c(cc2C(c2cccs2)=NCC1CCl)OCCO3` (centres undefined), the melting point fell in the range of 184 to 187 °C.

As to `CCOc1cc(Oc2ccc(C(F)(F)F)cn2)ccc1CCCOc1nn(CC)cc1CC(=O)O`, the melting point was in the range of 82 to 83 °C.

For `Cc1nc(N)c2nc(CO)n(NC3CCCCC3)c2c1C`, the melting point was over 250 °C.

`O=C(O)CCC(=O)Nc1ccc(C(=O)N2CCCCc3ccccc32)cc1`: the melting point stood at 192 °C.

Compound `CN(C)N(CCC(N)=O)C(N)=O` gave a melting point of 173 to 174 °C.
